The experiment addresses T1, human full-length MKNK1 (Homo sapiens, UniProt Q9BUB5, T385D).
T1 construct: purchased Carna Biosciences 02-145; host or cells: insect cells, baculovirus expression system
The experiment can be described thus: MKNK1 kinase high ATP assay (TR-FRET). It counts as biochemical. To be noted: high ATP (2 mM), 15 min preincubation with enzyme, GST-MKNK1 (T344D). The essentials:
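GST-tagged full-length human MKNK1 (aa 1-424, T344D), baculovirus-expressed, preincubated 15 min with compound, then reacted 30 min at 22 °C with 2 mM ATP and 0.06 µM biotinylated peptide (final).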
On the technique in general: Time-resolved FRET reads energy transfer from a long-lived donor to a nearby acceptor.

The structures appear in SMILES notation. A value given as a limit tells only on which side of the number the result lay.

T1 sequence (Q9BUB5 1-424 isoform Q9BUB5-2 T344D): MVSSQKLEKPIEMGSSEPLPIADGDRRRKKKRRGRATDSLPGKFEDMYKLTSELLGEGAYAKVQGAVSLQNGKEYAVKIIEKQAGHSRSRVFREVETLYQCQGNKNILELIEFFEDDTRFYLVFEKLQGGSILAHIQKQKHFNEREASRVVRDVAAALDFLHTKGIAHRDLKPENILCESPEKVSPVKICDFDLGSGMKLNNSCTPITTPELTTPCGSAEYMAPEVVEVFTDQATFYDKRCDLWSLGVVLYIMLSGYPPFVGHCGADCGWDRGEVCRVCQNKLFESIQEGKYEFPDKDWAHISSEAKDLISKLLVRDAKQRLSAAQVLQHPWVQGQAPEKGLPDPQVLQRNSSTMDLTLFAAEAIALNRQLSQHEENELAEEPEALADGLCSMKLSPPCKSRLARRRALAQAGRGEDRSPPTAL

As a reminder, the IC50 is the point on the concentration scale where inhibition reaches its midpoint. `CS(=O)(=O)CCCNC(=O)C1CCc2[nH]c3ncnc(Nc4ccccc4OC4CCCC4)c3c2C1` (racemic) [Example 78, (RS)-4-{[2-(Cyclopentyloxy)phenyl]amino}-N-[3-(methylsulfonyl)propyl]-6,7,8,9-tetrahydro-5H-pyrimido[4,5-b]indole-6-carboxamide] gave a concentration for half-maximal inhibition (IC50) of 24 nM.

For `CS(=O)(=O)CCCNC(=O)C1CCc2[nH]c3ncnc(Nc4ccccc4OC4CCOCC4)c3c2C1` (racemic) [Example 79, (RS)—N-[3-(Methylsulfonyl)propyl]-4-{[2-(tetrahydro-2H-pyran-4-yloxy)phenyl]amino}-6,7,8,9-tetrahydro-5H-pyrimido[4,5-b]indole-6-carboxamide], inhibition was half-maximal at 58 nM (IC50). For the compound `CC1(C)Cc2cccc(Nc3ncnc4[nH]c5c(c34)CC(C(=O)NCCCS(C)(=O)=O)CC5)c2O1` (racemic) [Example 80, (RS)-4-[(2,2-Dimethyl-2,3-dihydro-1-benzofuran-7-yl)amino]-N-[3-(methylsulfonyl)propyl]-6,7,8,9-tetrahydro-5H-pyrimido[4,5-b]indole-6-carboxamide], the IC50 is 494 nM. `CS(=O)(=O)CCCNC(=O)C1CCc2[nH]c3ncnc(Nc4cccc5c4CNC5=O)c3c2C1` (racemic) [Example 81, (RS)—N-[3-(Methylsulfonyl)propyl]-4-[(1-oxo-2,3-dihydro-1H-isoindol-4-yl)amino]-6,7,8,9-tetrahydro-5H-pyrimido[4,5-b]indole-6-carboxamide] yielded a 50% inhibitory concentration (IC50) of 1270 nM.

Take `CS(=O)(=O)CCCNC(=O)C1CCc2[nH]c3ncnc(Nc4ccc(F)c5[nH]c(=O)ccc45)c3c2C1` (racemic) [Example 82, (RS)-4-[(8-Fluoro-2-oxo-1,2-dihydroquinolin-5-yl)amino]-N-[3-(methylsulfonyl)propyl]-6,7,8,9-tetrahydro-5H-pyrimido[4,5-b]indole-6-carboxamide]: the IC50 turned out to be 10500 nM.

Turning to `[O-][S+]1CCc2[nH]c3ncnc(Nc4ccc5[nH]ncc5c4)c3c2C1` (racemic) [Example 85, (RS)—N-(1H-Indazol-5-yl)-5,7,8,9-tetrahydrothiopyrano[3′,4′:4,5]pyrrolo[2,3-d]pyrimidin-4-amine 6-oxide], 192 nM corresponded to half-maximal inhibition (IC50). For `CC(C)Oc1cc(F)ccc1Nc1ncnc2[nH]c3c(c12)C[S+]([O-])CC3` (racemic) [Example 86, (RS)—N-(4-Fluoro-2-isopropoxyphenyl)-5,7,8,9-tetrahydrothiopyrano[3′,4′:4,5]pyrrolo[2,3-d]pyrimidin-4-amine 6-oxide], it took 220 nM to reach half-maximal inhibition (IC50).

`COc1ccc(C(F)(F)F)cc1Nc1ncnc2[nH]c3c(c12)CC(C(=O)O)CC3` (racemic) [Example 103, (RS)-4-{[2-Methoxy-5-(trifluoromethyl)phenyl]amino}-6,7,8,9-tetrahydro-5H-pyrimido[4,5-b]indole-6-carboxylic acid] registered an IC50 of 400 nM. `COCC1(OC)CCc2[nH]c3ncnc(Nc4cc5[nH]c(=O)[nH]c5cc4Cl)c3c2C1` (racemic) [Example 131] showed an IC50 of 5700 nM. On to `COCC1(OC)CCc2[nH]c3ncnc(Nc4cc(Cl)ccc4OC(C)C)c3c2C1` (racemic) [Example 132], for which half-maximal inhibition (IC50) was put at 503 nM. With `COCC1(OC)CCc2[nH]c3ncnc(Nc4cc(Cl)ccc4OC)c3c2C1` (racemic) [Example 133], the IC50 came out at 205 nM.

`COCC1(OC)CCc2[nH]c3ncnc(Nc4ccc(F)cc4OC4CCCC4)c3c2C1` (racemic) [Example 134] gave an IC50 of 1650 nM.

For the compound `COCC1(OC)CCc2[nH]c3ncnc(Nc4ccc5[nH]ncc5c4)c3c2C1` (racemic) [Example 135], the 50% inhibitory concentration (IC50) was found to be 167 nM. The same measure for `COCC1(OC)CCc2[nH]c3ncnc(Nc4cc5cn[nH]c5cc4OC)c3c2C1` (racemic) [Example 136]: 48 nM; for `COCC1(OC)CCc2[nH]c3ncnc(Nc4ccc(F)cc4OC(C)C)c3c2C1` (racemic) [Example 137]: 773 nM. Compound `COCC1(OC)CCc2[nH]c3ncnc(Nc4ccc5[nH]c(=O)sc5c4)c3c2C1` (racemic) [Example 138] returned an IC50 of 358 nM. For the compound `COCC1(OC)CCc2[nH]c3ncnc(Nc4cc5cn[nH]c5cc4F)c3c2C1` (racemic) [Example 139], the concentration for half-maximal inhibition (IC50) is 197 nM.

As to `COCC1(OC)CCc2[nH]c3ncnc(Nc4cc(Cl)c(Cl)cc4OC)c3c2C1` (racemic) [Example 140], 339 nM corresponded to half-maximal inhibition (IC50). Consider `CS(=O)(=O)CCCNC(=O)C1CCc2[nH]c3ncnc(Sc4ccc5[nH]ncc5c4)c3c2C1` (racemic) [Example 146, (RS)-4-(1H-Indazol-5-ylsulfanyl)-N-[3-(methylsulfonyl)propyl]-6,7,8,9-tetrahydro-5H-pyrimido[4,5-b]indole-6-carboxamide], for which the IC50 came to 1130 nM. For `COc1cc(F)ccc1Sc1ncnc2[nH]c3c(c12)CC(C(=O)NCCCS(C)(=O)=O)CC3` (racemic) [Example 147, (RS)-4-[(4-Fluoro-2-methoxyphenyl)sulfanyl]-N-[3-(methylsulfonyl)propyl]-6,7,8,9-tetrahydro-5H-pyrimido[4,5-b]indole-6-carboxamide], the concentration for half-maximal inhibition (IC50) was determined as 5920 nM.

`COc1ccc(Cl)cc1Sc1ncnc2[nH]c3c(c12)CC(C(=O)NCCCS(C)(=O)=O)CC3` (racemic) [Example 148, (RS)-4-[(5-Chloro-2-methoxyphenyl)sulfanyl]-N-[3-(methylsulfonyl)propyl]-6,7,8,9-tetrahydro-5H-pyrimido[4,5-b]indole-6-carboxamide] showed a concentration for half-maximal inhibition (IC50) of 1730 nM. As to `COc1ccc(Cl)cc1Nc1ncnc2[nH]c3c(c12)CC(C(=O)NCCCS(C)(=O)=O)CC3` (racemic) [Example 149, (RS)-4-[(5-Chloro-2-methoxyphenyl)amino]-N-[3-(methylsulfonyl)propyl]-6,7,8,9-tetrahydro-5H-pyrimido[4,5-b]indole-6-carboxamide], the half-maximal inhibitory concentration (IC50) stood at 10 nM.

In turn, `CC(C)Oc1ccc(Cl)cc1Nc1ncnc2[nH]c3c(c12)CC(C(=O)NCCCS(C)(=O)=O)CC3` (racemic) [Example 150, (RS)-4-{[5-Chloro-2-(propan-2-yloxy)phenyl]amino}-N-[3-(methylsulfonyl)propyl]-6,7,8,9-tetrahydro-5H-pyrimido[4,5-b]indole-6-carboxamide] came in with an IC50 of 12 nM. In turn, `CS(=O)(=O)CCCNC(=O)C1CCc2[nH]c3ncnc(Nc4ccccc4OCC4CC4)c3c2C1` (racemic) [Example 151, (RS)-4-{[2-(Cyclopropylmethoxy)phenyl]amino}-N-[3-(methylsulfonyl)propyl]-6,7,8,9-tetrahydro-5H-pyrimido[4,5-b]indole-6-carboxamide] came in with an IC50 of 190 nM. `CS(=O)(=O)CCCNC(=O)C1CCc2[nH]c3ncnc(Nc4ccccc4OCC(F)F)c3c2C1` (racemic) [Example 152, (RS)-4-{[2-(2,2-Difluoroethoxy)phenyl]amino}-N-[3-(methylsulfonyl)propyl]-6,7,8,9-tetrahydro-5H-pyrimido[4,5-b]indole-6-carboxamide] came in with a 50% inhibitory concentration (IC50) of 113 nM. To `CC(C)COc1ccccc1Nc1ncnc2[nH]c3c(c12)CC(C(=O)NCCCS(C)(=O)=O)CC3` (racemic) [Example 153, (RS)-4-{[2-(2-Methylpropoxy)phenyl]amino}-N-[3-(methylsulfonyl)propyl]-6,7,8,9-tetrahydro-5H-pyrimido[4,5-b]indole-6-carboxamide] belongs 193 nM. `CS(=O)(=O)CCCNC(=O)C1CCc2[nH]c3ncnc(Nc4ccccc4OC(F)F)c3c2C1` (racemic) [Example 154, (RS)-4-{[2-(Difluoromethoxy)phenyl]amino}-N-[3-(methylsulfonyl)propyl]-6,7,8,9-tetrahydro-5H-pyrimido[4,5-b]indole-6-carboxamide] registered an IC50 of 469 nM.

The compound `CS(=O)(=O)CCCNC(=O)C1CCc2[nH]c3ncnc(Nc4ccc5[nH]c(=S)sc5c4)c3c2C1` (racemic) [Example 155, (RS)—N-[3-(Methylsulfonyl)propyl]-4-[(2-thioxo-2,3-dihydro-1,3-benzothiazol-6-yl)amino]-6,7,8,9-tetrahydro-5H-pyrimido[4,5-b]indole-6-carboxamide] returned an IC50 of 504 nM. `Cc1ccc(Nc2ncnc3[nH]c4c(c23)CC(C(=O)NCCCS(C)(=O)=O)CC4)c(OC(F)F)c1` (racemic) [Example 156, (RS)-4-{[2-(Difluoromethoxy)-4-methylphenyl]amino}-N-[3-(methylsulfonyl)propyl]-6,7,8,9-tetrahydro-5H-pyrimido[4,5-b]indole-6-carboxamide] registered an IC50 not below 20000 nM.

With `COc1cc(F)c(Cl)cc1Nc1ncnc2[nH]c3c(c12)CC(C(=O)NCCCS(C)(=O)=O)CC3` (racemic) [Example 157, (RS)-4-[(5-Chloro-4-fluoro-2-methoxyphenyl)amino]-N-[3-(methylsulfonyl)propyl]-6,7,8,9-tetrahydro-5H-pyrimido[4,5-b]indole-6-carboxamide], the IC50 worked out at 444 nM. Compound `COc1ccc(N(C)C)cc1Nc1ncnc2[nH]c3c(c12)CC(C(=O)NCCCS(C)(=O)=O)CC3` (racemic) [Example 158, (RS)-4-{[5-(Dimethylamino)-2-methoxyphenyl]amino}-N-[3-(methylsulfonyl)propyl]-6,7,8,9-tetrahydro-5H-pyrimido[4,5-b]indole-6-carboxamide] had a 50% inhibitory concentration (IC50) not below 20000 nM. The compound `CS(=O)(=O)CCCNC(=O)C1CCc2[nH]c3ncnc(Nc4ccc(F)cc4OCCO)c3c2C1` (racemic) [Example 159, (RS)-4-{[4-Fluoro-2-(2-hydroxyethoxy)phenyl]amino}-N-[3-(methylsulfonyl)propyl]-6,7,8,9-tetrahydro-5H-pyrimido[4,5-b]indole-6-carboxamide] had an IC50 of 36 nM. On to `CCCOc1ccc(F)cc1Nc1ncnc2[nH]c3c(c12)CC(C(=O)NCCCS(C)(=O)=O)CC3` (racemic) [Example 160, (RS)-4-[(5-Fluoro-2-propoxyphenyl)amino]-N-[3-(methylsulfonyl)propyl]-6,7,8,9-tetrahydro-5H-pyrimido[4,5-b]indole-6-carboxamide], for which the midpoint of inhibition, the IC50, lay at 37 nM.

The values are drawn from patent publication US20150133426A1, “SUBSTITUTED PYRROLOPYRIMIDINES” (BAYER PHARMA AKTIENGESELLSCHAFT, priority 2012, published 2015).
